Measured values taken from ChEMBL document CHEMBL1201862, “PubChem BioAssay data set” (2004).
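Five concentrations, 48 hours, 96-well plates. The concentration for 50% growth inhibition is given as GI50.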 Active and inactive are the calls of the source. Rule as the data show it: active = GI50 up to about 1.1 µM and inactive = higher.

How the values were obtained:
Assay in all cases: inhibition of tumour cell growth, NCI panel, 48 h
786-0 = test system: 786-0
HCC 2998 = test system: HCC 2998
HL-60 = test system: HL-60
Hs-578T = test system: Hs-578T
KM12 = test system: KM12
LOX IMVI = test system: LOX IMVI
MDA-MB-231 = test system: MDA-MB-231
Malme-3M = test system: Malme-3M
NCI-H226 = test system: NCI-H226
NCI-H23 = test system: NCI-H23
NCI/ADR-RES = test system: NCI/ADR-RES
OVCAR-3 = test system: OVCAR-3
SF-268 = test system: SF-268
SF-295 = test system: SF-295
SK-OV-3 = test system: SK-OV-3
SR = test system: SR
T47D = test system: T47D
UACC-257 = test system: UACC-257

Q: For CC(C)(C)c1ccc(-c2nnc(SCc3ccc(Cl)cc3)n2-c2cccc(C(F)(F)F)c2)cc1, which GI50 (786-0) is on record?
A: 13.9 µM (inactive)

Q: What about the GI50 (HCC 2998) of the same molecule?
A: 11.2 µM (inactive)

Q: What about the GI50 (HL-60) of the same molecule?
A: 0.0867 µM (active)

Q: And the GI50 (Hs-578T)?
A: 45.8 µM (inactive)

Q: And the GI50 (KM12)?
A: 8.2 µM (inactive)

Q: And the GI50 (LOX IMVI)?
A: 31.3 µM (inactive)

Q: What about the GI50 (MDA-MB-231) of the same molecule?
A: > 69 µM (inactive)

Q: What about the GI50 (Malme-3M) of the same molecule?
A: 29.4 µM (inactive)

Q: What about the GI50 (NCI-H226) of the same molecule?
A: 19.7 µM (inactive)

Q: And the GI50 (NCI-H23)?
A: 10.9 µM (inactive)

Q: And the GI50 (NCI/ADR-RES)?
A: 12.4 µM (inactive)

Q: What about the GI50 (OVCAR-3) of the same molecule?
A: 1.87 µM (inactive)

Q: What about the GI50 (SF-268) of the same molecule?
A: 25 µM (inactive)

Q: And the GI50 (SF-295)?
A: 8.43 µM (inactive)

Q: And the GI50 (SK-OV-3)?
A: 8.32 µM (inactive)

Q: What about the GI50 (SR) of the same molecule?
A: 5.82 µM (inactive)

Q: And the GI50 (T47D)?
A: 5.08 µM (inactive)

Q: What about the GI50 (UACC-257) of the same molecule?
A: 9.95 µM (inactive)

Q: With Nc1nnc2oc3ccc4ccccc4c3cc1-2 as the molecule, how does the GI50 (786-0) read?
A: 34 µM (inactive)

Q: What about the GI50 (HCC 2998) of the same molecule?
A: 20.3 µM (inactive)

Q: What about the GI50 (HL-60) of the same molecule?
A: 21.9 µM (inactive)

Q: What about the GI50 (Hs-578T) of the same molecule?
A: 54.5 µM (inactive)

Q: And the GI50 (KM12)?
A: 29.7 µM (inactive)

Q: And the GI50 (LOX IMVI)?
A: 23.5 µM (inactive)

Q: And the GI50 (MDA-MB-231)?
A: 24.5 µM (inactive)

Q: And the GI50 (Malme-3M)?
A: 23 µM (inactive)

Q: What about the GI50 (NCI-H226) of the same molecule?
A: 21.5 µM (inactive)

Q: And the GI50 (NCI-H23)?
A: 42.8 µM (inactive)

Q: And the GI50 (NCI/ADR-RES)?
A: 30.9 µM (inactive)

Q: And the GI50 (OVCAR-3)?
A: 34.8 µM (inactive)

Q: What about the GI50 (SF-268) of the same molecule?
A: 34 µM (inactive)

Q: What about the GI50 (SF-295) of the same molecule?
A: 26.4 µM (inactive)

Q: What about the GI50 (SK-OV-3) of the same molecule?
A: 67.5 µM (inactive)

Q: What about the GI50 (SR) of the same molecule?
A: 23.1 µM (inactive)

Q: What about the GI50 (T47D) of the same molecule?
A: 11.4 µM (inactive)

Q: What about the GI50 (UACC-257) of the same molecule?
A: 28.2 µM (inactive)

Q: How did the GI50 (786-0) turn out when CCOC(=O)c1ccc(Nc2nc3ccc(C(F)(F)F)cc3nc2C(=O)OCC)cc1 was run?
A: > 100 µM (inactive)

Q: And the GI50 (HCC 2998)?
A: > 100 µM (inactive)

Q: And the GI50 (HL-60)?
A: > 100 µM (inactive)

Q: And the GI50 (Hs-578T)?
A: 32.9 µM (inactive)

Q: And the GI50 (KM12)?
A: > 100 µM (inactive)

Q: What about the GI50 (LOX IMVI) of the same molecule?
A: > 100 µM (inactive)

Q: What about the GI50 (MDA-MB-231) of the same molecule?
A: > 100 µM (inactive)

Q: And the GI50 (Malme-3M)?
A: > 100 µM (inactive)

Q: And the GI50 (NCI-H226)?
A: > 100 µM (inactive)

Q: What about the GI50 (NCI-H23) of the same molecule?
A: > 100 µM (inactive)

Q: What about the GI50 (NCI/ADR-RES) of the same molecule?
A: > 100 µM (inactive)

Q: What about the GI50 (OVCAR-3) of the same molecule?
A: > 100 µM (inactive)

Q: And the GI50 (SF-268)?
A: > 100 µM (inactive)

Q: And the GI50 (SF-295)?
A: > 100 µM (inactive)

Q: And the GI50 (SK-OV-3)?
A: > 100 µM (inactive)

Q: What about the GI50 (SR) of the same molecule?
A: > 100 µM (inactive)

Q: What about the GI50 (T47D) of the same molecule?
A: > 100 µM (inactive)

Q: What about the GI50 (UACC-257) of the same molecule?
A: > 100 µM (inactive)

Q: Which GI50 (786-0) does the source give for CCOC(=O)C1(C#N)OC(=O)c2cnccc21 (stereo unspecified) here?
A: > 100 µM (inactive)

Q: What about the GI50 (HCC 2998) of the same molecule?
A: > 100 µM (inactive)

Q: What about the GI50 (HL-60) of the same molecule?
A: > 100 µM (inactive)

Q: And the GI50 (Hs-578T)?
A: > 100 µM (inactive)

Q: And the GI50 (KM12)?
A: > 100 µM (inactive)

Q: And the GI50 (LOX IMVI)?
A: > 100 µM (inactive)

Q: What about the GI50 (MDA-MB-231) of the same molecule?
A: > 100 µM (inactive)

Q: What about the GI50 (Malme-3M) of the same molecule?
A: > 100 µM (inactive)

Q: What about the GI50 (NCI-H226) of the same molecule?
A: > 100 µM (inactive)

Q: What about the GI50 (NCI-H23) of the same molecule?
A: > 100 µM (inactive)

Q: And the GI50 (NCI/ADR-RES)?
A: > 100 µM (inactive)

Q: What about the GI50 (OVCAR-3) of the same molecule?
A: > 100 µM (inactive)

Q: And the GI50 (SF-268)?
A: > 100 µM (inactive)

Q: What about the GI50 (SF-295) of the same molecule?
A: > 100 µM (inactive)

Q: What about the GI50 (SK-OV-3) of the same molecule?
A: > 100 µM (inactive)

Q: And the GI50 (SR)?
A: > 100 µM (inactive)

Q: What about the GI50 (T47D) of the same molecule?
A: > 100 µM (inactive)

Q: And the GI50 (UACC-257)?
A: > 100 µM (inactive)

Q: How did the GI50 (786-0) turn out when O=[N+]([O-])c1ccc(O)c(/C=N/NC(=S)N2CCCCC2)c1 was run?
A: 1.84 µM (inactive)

Q: What about the GI50 (HCC 2998) of the same molecule?
A: 7.73 µM (inactive)

Q: And the GI50 (HL-60)?
A: 0.282 µM (active)

Q: What about the GI50 (Hs-578T) of the same molecule?
A: 13.8 µM (inactive)

Q: What about the GI50 (KM12) of the same molecule?
A: 3.59 µM (inactive)

Q: What about the GI50 (LOX IMVI) of the same molecule?
A: 1.57 µM (inactive)

Q: And the GI50 (MDA-MB-231)?
A: 5.89 µM (inactive)

Q: What about the GI50 (Malme-3M) of the same molecule?
A: 1.64 µM (inactive)

Q: What about the GI50 (NCI-H226) of the same molecule?
A: 1.55 µM (inactive)

Q: And the GI50 (NCI-H23)?
A: 3.61 µM (inactive)

Q: What about the GI50 (NCI/ADR-RES) of the same molecule?
A: 1.59 µM (inactive)

Q: What about the GI50 (OVCAR-3) of the same molecule?
A: 2.24 µM (inactive)

Q: And the GI50 (SF-268)?
A: 2.45 µM (inactive)

Q: And the GI50 (SF-295)?
A: 3.01 µM (inactive)

Q: And the GI50 (SK-OV-3)?
A: 4.8 µM (inactive)

Q: What about the GI50 (SR) of the same molecule?
A: 2.43 µM (inactive)

Q: What about the GI50 (T47D) of the same molecule?
A: 6.18 µM (inactive)

Q: And the GI50 (UACC-257)?
A: 7.16 µM (inactive)

Q: With CCOc1ccc(C2c3[nH]c4ccccc4c3CCN2C(=O)c2cccs2)cc1 (stereo unspecified) as the molecule, how does the GI50 (786-0) read?
A: 9.18 µM (inactive)

Q: And the GI50 (HCC 2998)?
A: 2.08 µM (inactive)

Q: And the GI50 (HL-60)?
A: 9.04 µM (inactive)

Q: What about the GI50 (Hs-578T) of the same molecule?
A: 63.1 µM (inactive)

Q: What about the GI50 (KM12) of the same molecule?
A: 9.08 µM (inactive)

Q: And the GI50 (LOX IMVI)?
A: 6.52 µM (inactive)

Q: And the GI50 (MDA-MB-231)?
A: 9.33 µM (inactive)

Q: And the GI50 (Malme-3M)?
A: 88.5 µM (inactive)

Q: And the GI50 (NCI-H226)?
A: 3.06 µM (inactive)

Q: What about the GI50 (NCI-H23) of the same molecule?
A: 56.4 µM (inactive)

Q: What about the GI50 (NCI/ADR-RES) of the same molecule?
A: 6.43 µM (inactive)

Q: What about the GI50 (OVCAR-3) of the same molecule?
A: 9.89 µM (inactive)

Q: And the GI50 (SF-268)?
A: 52.4 µM (inactive)

Q: What about the GI50 (SF-295) of the same molecule?
A: 6.03 µM (inactive)

Q: What about the GI50 (SK-OV-3) of the same molecule?
A: > 100 µM (inactive)

Q: What about the GI50 (SR) of the same molecule?
A: 2.62 µM (inactive)

Q: What about the GI50 (T47D) of the same molecule?
A: 5.9 µM (inactive)

Q: What about the GI50 (UACC-257) of the same molecule?
A: 17.3 µM (inactive)

Q: For Cc1ccc([N+](=O)[O-])cc1NC1=NCCO1, which GI50 (786-0) is on record?
A: > 100 µM (inactive)

Q: What about the GI50 (HCC 2998) of the same molecule?
A: > 100 µM (inactive)

Q: And the GI50 (HL-60)?
A: > 100 µM (inactive)

Q: And the GI50 (Hs-578T)?
A: > 100 µM (inactive)

Q: And the GI50 (KM12)?
A: > 100 µM (inactive)

Q: And the GI50 (LOX IMVI)?
A: > 100 µM (inactive)

Q: And the GI50 (MDA-MB-231)?
A: > 100 µM (inactive)

Q: And the GI50 (Malme-3M)?
A: > 100 µM (inactive)

Q: What about the GI50 (NCI-H226) of the same molecule?
A: > 100 µM (inactive)

Q: What about the GI50 (NCI-H23) of the same molecule?
A: > 100 µM (inactive)

Q: What about the GI50 (NCI/ADR-RES) of the same molecule?
A: > 100 µM (inactive)

Q: And the GI50 (OVCAR-3)?
A: > 100 µM (inactive)

Q: And the GI50 (SF-268)?
A: > 100 µM (inactive)

Q: What about the GI50 (SF-295) of the same molecule?
A: > 100 µM (inactive)

Q: What about the GI50 (SK-OV-3) of the same molecule?
A: > 100 µM (inactive)

Q: What about the GI50 (SR) of the same molecule?
A: 45.8 µM (inactive)

Q: What about the GI50 (T47D) of the same molecule?
A: > 100 µM (inactive)

Q: What about the GI50 (UACC-257) of the same molecule?
A: > 100 µM (inactive)
